Marks after values point to notes of the source that are not given here.

This is an account of results in patent US10524472B2, “Elicitor peptides having disrupted hypersensitive response box and use thereof” (Plant Health Care, Inc., priority 2014, dated 2020).

This test has as its system tobacco mosaic virus (TMV). As to the kind of experiment: Induction of resistance to tobacco mosaic virus in tobacco. In kind it is in vivo. The following applies: for Effectiveness Covered (%) (decline in TMV lesions vs UTC, systemic response) / Effectiveness Uncovered (%) (decline in TMV lesions vs UTC, local response): TMV 3 days post-treatment, scored 3 days after inoculation; for TMV response / effectiveness against TMV infection (summary of Table 22): foliar spray; for efficacy on covered leaves, systemic immune response: covered leaf.

QDPMQALMQLLEDLVKDLK (P14d-17D): for the setting “spray 20 ug/ml”, the “Effectiveness Covered (%) (decline in TMV lesions vs UTC, systemic response)” value (“Effectiveness Covered (%)” for short) is listed as 65* % and the “Effectiveness Uncovered (%) (decline in TMV lesions vs UTC, local response)” value (“Effectiveness Uncovered (%)” below) was 68* %.
Regarding SEEEEELAQLSAQLLKSLL (P18min-11S), the “TMV response / effectiveness against TMV infection (summary of Table 22)” value (shortened to “TMV response / effectiveness”) is listed as “weaker TMV responses”. For the same substance, where the note is “spray 20 ug/ml”, the “Effectiveness Covered (%)” value is reported as −274% and the “Effectiveness Uncovered (%)” value is given as −90%.
Take QDPMQALMQLLEDLVKLDK (P14d-18D): the “TMV response / effectiveness” value is recorded as “weaker TMV responses”. Also, under “spray 20 ug/ml”, the “Effectiveness Covered (%)” value was found to be 32% and the “Effectiveness Uncovered (%)” value came out at 52%.
With PSPFTQMLMHSVGEILQAQN (P6a-11S), under “spray 20 ug/ml”, the “Effectiveness Covered (%)” value was 88* % and the “Effectiveness Uncovered (%)” value is given as 71* %.
As for QDPMQALMQLLEDLDKLLK (P14d-15D), where the note is “spray 20 ug/ml”, the “Effectiveness Covered (%)” value was 74* % and the “Effectiveness Uncovered (%)” value is 87* %.
For the substance KPNDSQSNIAKLISALIMSLSQ (P15b-21S), under “spray 20 ug/ml”, the “Effectiveness Covered (%)” value is listed as 97* % and the “Effectiveness Uncovered (%)” value was 100* %.
Taken in the same sequence, the figures for SEEEEELQQLLKLFSEILQ (P3-10) were 95* % and 94* %.
The corresponding values for PSPFTQMLMHIVGEDLQAQN (P6a-15D) are 74* % and 74* %.
Taken in the same sequence, the figures for QQPIDRQTIEQMAQLLAQLL (P18-8) were 78* % and 55%.
Consider QDPMQASMQLLEDLVKLLK (P14d-7S), for which the “efficacy on covered leaves, systemic immune response” value is recorded as “reduced efficacy on covered leaves”. For the same substance, where the note is “spray 20 ug/ml”, the “Effectiveness Covered (%)” value is reported as 23% and the “Effectiveness Uncovered (%)” value is on record as −112%.
For the substance SEEEELDQLLTQLI (P1-31), the “TMV response / effectiveness” value is “anti-TMV activity”. Besides, where the note is “spray 20 ug/ml”, the “Effectiveness Covered (%)” value is reported as 88* % and the “Effectiveness Uncovered (%)” value is reported as 95* %.
As for “SEEEEELTGVLQKLLK_ILE (SEEEEELTGVLQKLLKILE; P25-12)”, for the setting “spray 20 ug/ml”, the “Effectiveness Covered (%)” value was 58% and the “Effectiveness Uncovered (%)” value is 77* %.
Turning to “SQGISEKQLADQLLASQLIAQALLQP (P4-i10A,14A,18A)”, under “spray 10 ug/ml”, the “Effectiveness Covered (%)” value was determined as 69% and the “Effectiveness Uncovered (%)” value is 75%.
For the substance SQGISEKQLDQLLSQLFQALLQP (P4-14S-17F), under “spray 10 ug/ml”, the “Effectiveness Covered (%)” value turned out to be 57% and the “Effectiveness Uncovered (%)” value was 94%.
As to SQGISEKQLDQLLSQLIQAVLQP (P4-14S-20V), the “TMV response / effectiveness” value is on record as “weaker TMV responses”. Under “spray 10 ug/ml”, the “Effectiveness Covered (%)” value is −29% and the “Effectiveness Uncovered (%)” value was −26%.
As to “QAGPQSANKTGNVDDANNQDPE_ALAQLLEDLV (QAGPQSANKTGNVDDANNQDPEALAQLLEDLV; P14-22E,26A)”, for the setting “spray 20 ug/ml”, the “Effectiveness Covered (%)” value is on record as 88* % and the “Effectiveness Uncovered (%)” value is 89* %.
Turning to “QAGPQSANKTGNVDDANNQDPLQALLQLLEDAA (P14-22L,32-33A)”, for the setting “spray 10 ug/ml”, the “Effectiveness Covered (%)” value is on record as 69* % and the “Effectiveness Uncovered (%)” value was 91* %.
Regarding SQGISEKQLDQLLSQAIQALLQP (P4-14S-16A), the “TMV response / effectiveness” value is reported as “weaker TMV responses”. In addition, for the setting “spray 10 ug/ml”, the “Effectiveness Covered (%)” value amounted to 3% and the “Effectiveness Uncovered (%)” value worked out at 1%.
With “SQGISEKQL_QLL_QLI_ALLQP (SQGISEKQLQLLQLIALLQP; P4-d10,14,18)”, the “TMV response / effectiveness” value is reported as “moderate reduction in effectiveness against TMV infection”. Further, for the setting “spray 10 ug/ml”, the “Effectiveness Covered (%)” value is 37% and the “Effectiveness Uncovered (%)” value was determined as 55%.
As to GGLTLTGVDQKLMKILNALVQ (P25-9D), the “efficacy on covered leaves, systemic immune response” value is recorded as “reduced efficacy on covered leaves”. Besides, under “spray 20 ug/ml”, the “Effectiveness Covered (%)” value was determined as 55% and the “Effectiveness Uncovered (%)” value is on record as 78* %.
Turning to “SEEEEELQKLLK_ILEALV (SEEEEELQKLLKILEALV; P25-9)”, under “spray 20 ug/ml”, the “Effectiveness Covered (%)” value was 87* % and the “Effectiveness Uncovered (%)” value was found to be 68%.
With “QAGPQSANKTGNVDDANNQDPMQALMQLLEDL (P14-dc1)”, where the note is “spray 10 ug/ml”, the “Effectiveness Covered (%)” value is listed as 46% and the “Effectiveness Uncovered (%)” value was 65* %.
In the case of SQGISEKQLDQLLASQLIQALLQP (P4-i14A), for the setting “spray 10 ug/ml”, the “Effectiveness Covered (%)” value is 77% and the “Effectiveness Uncovered (%)” value was 75%.
Turning to SQGISEKQLDQLLSQLI (P4-111), where the note is “spray 10 ug/ml”, the “Effectiveness Covered (%)” value is on record as 65% and the “Effectiveness Uncovered (%)” value turned out to be 58%.
SEEEEELLQLLEDLV (P14-41): where the note is “spray 20 ug/ml”, the “Effectiveness Covered (%)” value is given as 61* % and the “Effectiveness Uncovered (%)” value is reported as 86* %.
Taken in the same sequence, the figures for SEEEEELKASLKLIARLL (P19min-10S) were 94* % and 81* %.
In the case of “QAGPQSANKTGNVDDANNQDPEQALLQLLEDLV (P14-22E,26L)”, for the setting “spray 20 ug/ml”, the “Effectiveness Covered (%)” value is 84* % and the “Effectiveness Uncovered (%)” value is recorded as 61* %.
For the substance SEEEEEEEIAKLISALIESLL (P15-60), for the setting “spray 20 ug/ml”, the “Effectiveness Covered (%)” value came to 13% and the “Effectiveness Uncovered (%)” value was determined as 55%.
Take SEEEEELKALLKSIARLL (P19min-13S): the “TMV response / effectiveness” value was “poor immune activation”. Further, for the setting “listed as P19 min-135”, the “TMV response / effectiveness” value is given as “weaker TMV responses”. For the same substance, where the note is “spray 20 ug/ml”, the “Effectiveness Covered (%)” value is reported as −70% and the “Effectiveness Uncovered (%)” value came out at 35%.
For the substance QDPMQADMQLLEDLVKLLK (P14d-7D), for the setting “spray 20 ug/ml”, the “Effectiveness Covered (%)” value was 55* % and the “Effectiveness Uncovered (%)” value was 71* %.
Consider SEEEEEEIAKLISALI (P15-63), for which, where the note is “spray 20 ug/ml”, the “Effectiveness Covered (%)” value is recorded as 74* % and the “Effectiveness Uncovered (%)” value was 90* %.
In the case of SEEEEELKALSKLIARLL (P19min-11S), where the note is “spray 20 ug/ml”, the “Effectiveness Covered (%)” value worked out at 45% and the “Effectiveness Uncovered (%)” value is on record as 71* %.
On to QDPAQALEQLLEDLVKSLK (p14f-17S), for which, where the note is “spray 20 ug/ml”, the “Effectiveness Covered (%)” value is 84* % and the “Effectiveness Uncovered (%)” value is 94* %.
As to SEEEEEALEQLLEDLVKLL (P14-31), under “spray 20 ug/ml”, the “Effectiveness Covered (%)” value is reported as 87* % and the “Effectiveness Uncovered (%)” value is listed as 85* %.
In the case of QDPMQALMQLDEDLVKLLK (P14d-11D), under “spray 20 ug/ml”, the “Effectiveness Covered (%)” value is listed as 87* % and the “Effectiveness Uncovered (%)” value is 81* %.
Take SQGISEKQLDQLLSQLIAQALLQP (P4-i18A): where the note is “spray 10 ug/ml”, the “Effectiveness Covered (%)” value came to 50% and the “Effectiveness Uncovered (%)” value was 81%.
As for “SEEEEEEEIAKLIS_LIESLL (SEEEEEEEIAKLISLIESLL; P15-61)”, under “spray 20 ug/ml”, the “Effectiveness Covered (%)” value amounted to 7% and the “Effectiveness Uncovered (%)” value is on record as 55* %.
As for “QAGPQSANKTGNVDDANNQDPAQALAQLLEDLV (P14-22A,26A)”, where the note is “spray 10 ug/ml”, the “Effectiveness Covered (%)” value was 93* % and the “Effectiveness Uncovered (%)” value is recorded as 92* %.
Consider SQGISEKQLADQLLSQLIQALLQP (P4-i10A), for which, under “spray 10 ug/ml”, the “Effectiveness Covered (%)” value turned out to be 81% and the “Effectiveness Uncovered (%)” value was determined as 92%.
As to “QAGPQSANKTGNVDDANNQDPAQALLQLLEDLV (P14-22A,26L)”, for the setting “spray 20 ug/ml”, the “Effectiveness Covered (%)” value was found to be 62% and the “Effectiveness Uncovered (%)” value is 48%.
Consider QDPMQALMQLLEDDVKLLK [P14d-14D], for which, for the setting “spray 20 ug/ml”, the “Effectiveness Covered (%)” value is recorded as 35% and the “Effectiveness Uncovered (%)” value is reported as 84* %.
As for SEEEELDQLLSQLI (P4-115), under “spray 20 ug/ml”, the “Effectiveness Covered (%)” value was 87* % and the “Effectiveness Uncovered (%)” value is 87* %.
In the case of KPNDSQSNIAKSISALIMSLLQ (P15b-12S), under “spray 20 ug/ml”, the “Effectiveness Covered (%)” value came to 47% and the “Effectiveness Uncovered (%)” value is listed as 76* %.
“QAGPQSANKTGNVDDANNQDPMQALMQLLED (P14-dc2)”: where the note is “spray 10 ug/ml”, the “Effectiveness Covered (%)” value was 56% and the “Effectiveness Uncovered (%)” value is 76* %.
For SQGISEKQLDQLLSQVIQALLQP (P4-14S-16V), the “TMV response / effectiveness” value is “produced the best results”. For the same substance, under “spray 10 ug/ml”, the “Effectiveness Covered (%)” value is recorded as 85* % and the “Effectiveness Uncovered (%)” value turned out to be 78%.
On to QDPMQALMQDLEDLVKLLK (P14d-10D), for which, where the note is “spray 20 ug/ml”, the “Effectiveness Covered (%)” value is 84* % and the “Effectiveness Uncovered (%)” value was 84* %.
Consider “SQGISEKQLDQLLSQLI_ALLQP (SQGISEKQLDQLLSQLIALLQP; P4-d18)”, for which, under “spray 10 ug/ml”, the “Effectiveness Covered (%)” value came out at 15% and the “Effectiveness Uncovered (%)” value came to 65%.
